The values that follow come from patent US6150414A, “Compositions and methods for treating viral infections” (priority 1992, dated 2000).

Assay [1] deals with Friend Leukemia Virus. Briefly: Inhibition of Friend Leukemia Virus-induced splenomegaly in mice, compounds intraperitoneally 24 hours after virus (Example 1(a)). Format: in vivo, BALB/c mice. Further details: Actual Spleen Weight / Average Spleen Weight: unit not given here. Conditions: for inhibition in vivo at 0.1 mg / inhibition in vivo at 0.05 mg / inhibition in vivo at 0.2 mg: Mus musculus, ip; for Pooled Average % Inhibition: pooled over 50, 100, 200, 2 × 100 micrograms. From the text:
The effects of compositions according to the present invention on infection of mammals with Friend Leukemia Virus (FV) were examined.
Friend Leukemia Virus is an aggressive retrovirus which induces an acute erythroleukemia in sensitive strains of mice such as BALB/c and NIH swiss mice as described in Friend, C. J., Exp. Med. 105: 307-324, 1957; Friend, C. et al. Proc. Natl. Acad. Sci. USA 68: 378-383, 1971; Friend, C. et al. Natl. Cancer Inst. Mongr. 22: 508-552, 1966. The malignant transformation is the result of the combined activities of the Spleen Focus Forming Virus (SFFV) and the ecotropic Murine Friend Leukemia Helper Virus (F-MuLV). The acute erythroleukemia is characterized by hepatosplenomegaly (a marked increase in the size of the spleen and liver) and a severe anemia.
Friend Leukemia Virus was prepared by homogenizing the enlarged spleen of a mouse previously infected with FV, 10 days after intravenous virus injection. The spleen was homogenized in phosphate buffered saline in a volume equal to ten times the weight of the isolated spleen.
(§1) The effects of compositions according to the present invention on the increase in spleen size (splenomegaly) of BALB/c mice (Jackson Labs, Bar Harbor, ME) was examined. In these experiments, the virus (10^6 focus forming units--FFU) was inoculated intravenously and 100 micrograms of the compounds indicated in Table II were administered to the mice intraperitoneally 24 hours later. Each compound was administered once to two mice. The animals were sacrificed ten days later and their spleens weighed.
The present assay has been developed from similar assays using hypericin or pseudohypericin and employing higher numbers of experimental animals per group (e.g. 4 animals). It was discovered however that the specificity and sensitivity of this assay are such that an experimental group of two animals is of more than adequate predictive value.
(§2) As used in Table II (and subsequent Tables of this Example l(a) and (b), "average percent inhibition" is calculated as follows: [formula] wherein "ASWNC" designates "average spleen weight of negative control"; "ASWE" designates "average spleen weight of experimental (treated) subject"; and "ASWPC" designates "average spleen weight of positive control". Average spleen weight is the numerical average of spleen weights of each experimental group (in Table II each such group includes two members).
In these experiments, the virus (10^6 focus forming units--FFU) was inoculated intravenously, and the indicated doses of the antiviral compounds of this invention were administered to the BALB/c mice intraperitoneally 24 hours later. The animals were then sacrificed ten days later and their spleens weighed.
Pseudohypericin was diluted in phosphate buffered saline with 1% ethanol.
An expanded series of experiments was next performed in which various concentrations (i.e. 50, 100, 200 and 2×100, i.e., 100 micrograms administered twice) of a different set of PAC compounds (numbers 16-29 and 30-36 in Table III below) were administered intraperitoneally each according to the same protocol described above. Compounds 16-29 all had 3-5 fused, aromatic rings and no side groups except for oxygen or hydroxyl groups, whereas compounds 30-36 all had 3 fused aromatic rings and side chains selected from the group of oxygen, hydroxyl and methyl.
When 2 doses of the compounds were given, the second dose was administered 24-48 hours after the first injection. The animals were infected and splenomegaly determined as above for the compounds in Table II. In Table III, "pooled average percent inhibition" is calculated by adding the average percent inhibition for each experiment with the same compound and dividing the sum by the number of experiments (i.e. the number 4). […]

For assay [2], the system named is Friend Leukemia Virus. As to the kind of experiment: FV-induced splenomegaly, PAC compounds in combination with AZT (Example 1(b)). Format: in vivo, BALB/c mice. Further details: Spleen weight / Average Spleen Weight: unit not given here. Conditions: for Spleen weight: single animal. The protocol:
as §1, §2
The compounds of the present invention (100 micrograms per mouse) were also tested in combination with AZT (20 micrograms per mouse, twice a day) using otherwise the same methods as in Example 1(a) above. As representatives, compound #9 above (3-bromophenanthro (3,4-C), phenanthrene) and compound #10 (diindeno (1, 2, 3-CD/1', 2', 3'-IM) Perylene) were chosen. […] The compounds were administered i.p. either once or five times (once per day) alone or together with AZT (20 micrograms of AZT per mouse twice a day for five days?). Thus, in experiments where AZT was administered five times, a total of […] of AZT was received by each mouse (with a total of 500 micrograms of the PAC compound).

Assay [3] has as its system retroviruses (virions). Briefly: Direct inactivation of retroviruses (virions) in vitro (Example 10). Format: biochemical, Radiation Leukemia Virus. The following applies: Table IX. The protocol: Supernatants (10 ml/tube) from B10.T(6R) cells (Meruelo et al. J. Exp. Med. 147: 470-487, 1978) chronically infected with Radiation Leukemia Virus (RadLV) were obtained by centrifugation of cells in culture at 4° C., 3500 rpm for 15 minutes. The top 2/3 of the supernatant were removed and aliquots were incubated for 30 minutes on ice with the indicated amounts of hypericin or protohypericin. […] Thereafter, supernatants were centrifuged at 100,000×g using a TI70 rotor (Beckman Instruments) for 1 hour at 4° C. The pellet was […] and analyzed for reverse transcriptase activity as follows.
The reverse transcriptase assay was performed in a volume of 100 microliters containing the following components:
(1) Direct inactivation of retroviruses in vitro, performed as in Example 3 above;
(§3) The results presented above in Table IX are presented as EC50 concentrations. These are the effective concentrations which inhibit 50% of the viruses in micromolar concentrations.

The test system of assay [4] is Friend Leukemia Virus. As to the kind of experiment: In vivo inhibition of Friend Leukemia Virus splenomegaly, intravenous 1-2 hours post infection (Example 10). Conditions: Mus musculus, read-out: EC50 for FV-induced splenomegaly. Further details: species or system mice. How it is done: (3) In vivo inhibition of Friend Leukemia Virus Splenomegaly performed as described in Example 1 above except that the compounds were administered intravenously 1-2 hours post infection.
as §3

Setting [5] is: 100 micrograms i.p. once, 24 h after FV, Table II.
Setting [6] is: 1X, 100 micrograms per mouse i.p.
The mark [7] stands for this setting: 5X, 100 micrograms per mouse i.p. once per day.
[8] abbreviates: dose 2 × 100 (micrograms) i.p., Table III, read-out: Average Perdosage % Inhibition.
The mark [9] stands for this setting: dose 50 (micrograms) i.p., Table III, read-out: Average Perdosage % Inhibition.
Where [10] appears, read: dose 100 (micrograms) i.p., Table III, read-out: Average Perdosage % Inhibition.
The mark [11] stands for this setting: dose 200 (micrograms) i.p., Table III, read-out: Average Perdosage % Inhibition.
The mark [12] stands for this setting: dose 2 × 100 (micrograms) i.p., Table III.
Where [13] appears, read: dose 50 (micrograms) i.p., Table III.
Where [14] appears, read: dose 100 (micrograms) i.p., Table III.
Setting [15] is: dose 200 (micrograms) i.p., Table III.

Values joined by “and” are separate entries in the source; they are usually repeats but may differ in a detail not shown here. Equal values may be shown once. Read-outs that look alike come from different tables or passages of the source. Bounds are passed on as bounds.

For orientation: % Inhibition means the drop in the measured response relative to a control, in per cent. Regarding `Brc1cc2ccc3ccc4ccccc4c3c2c2c1ccc1ccccc12` [Compound 9, 3-Bromophenanthro(3,4-C)Phenanthrene], in assay [1] (setting [5]), the “Average Spleen Weight” value came to 0.8756. Besides, the “inhibition of FV-induced splenomegaly / anti-retroviral activity” value in assay [1] (Example 1(a)) is reported as “weak anti-retroviral activity”. In addition, in assay [2] (setting [6]), the “% Inhibition” value is reported as 3%; the Average Spleen Weight is 2.1074; the Spleen weight was 2.0831 and 2.1317. Moreover, in assay [2] (setting [7]), the “% Inhibition” value amounted to 24%; the Average Spleen Weight came to 1.681; the Spleen weight is 1.6262 and 1.7363.
As for `c1ccc2c(c1)-c1ccc3c4ccc5c6c(ccc(c7ccc-2c1c37)c64)-c1ccccc1-5` [Compound 10, Diindeno(1,2,3-CD/1',2',3'-IM)Perylene], the “Average % Inhibition” value in assay [1] (setting [5]) is given as 44.3%; in assay [1] (100 micrograms i.p. once, 24 h after FV, Table II, listed as #10) it was above 40%. Also, the “Average Spleen Weight” value is reported as 0.4767 in assay [1] (setting [5]), 1.724 in assay [2] (setting [6]) and 1.2358 in assay [2] (setting [7]). Further, in assay [1] (100 micrograms i.p. once, 24 h after FV, Table II, single animal), the “Actual Spleen Weight” value was 0.4809 and 0.4724. For the same compound, the “% Inhibition” value in assay [2] (setting [6]) was determined as 22%; in assay [2] (setting [7]), 46%. The Spleen weight in assay [2] (setting [6]) was 1.7816 and 1.6664; in assay [2] (setting [7]), 1.5771 and 0.8945.
Broadly, the EC50 is the concentration at which the effect is half-maximal. For the compound `O=C1c2ccccc2Cc2ccccc21` [Compound 30, Anthrone], the inhibition in vivo at 0.1 mg in assay [1] (setting [8]) is 57%; in assay [1] (setting [10]), 63%. For the same compound, in assay [1] (setting [9]), the inhibition in vivo at 0.05 mg was 31%. Moreover, the inhibition in vivo at 0.2 mg in assay [1] (setting [11]) amounted to 62%. Further, the “Average Spleen Weight” value came to 0.9878 in assay [1] (setting [12]), 1.4953 in assay [1] (setting [13]), 0.8790 in assay [1] (setting [14]) and 0.9092 in assay [1] (setting [15]). In assay [1] (Table III), the “Pooled Average % Inhibition” value stood at 53%. For the same compound, the EC50 in assay [3] was above 51 µM; in assay [4] (i.v. 1-2 hours post infection, Table IX), 267 µM.
Consider `Cc1cc(O)c2c(c1)C(=O)c1cc(O)cc(O)c1C2=O` [Compound 34, Emodin], for which the inhibition in vivo at 0.1 mg stood at 42% in assay [1] (setting [8]) and 50% in assay [1] (setting [10]). Moreover, the inhibition in vivo at 0.05 mg in assay [1] (setting [9]) stood at 41%. Moreover, the inhibition in vivo at 0.2 mg in assay [1] (setting [11]) came out at 20%. The “Average Spleen Weight” value was 1.2834 in assay [1] (setting [12]), 1.2914 in assay [1] (setting [13]), 1.1333 in assay [1] (setting [14]) and 1.6902 in assay [1] (setting [15]). For the same compound, the “Pooled Average % Inhibition” value in assay [1] (Table III) amounted to 38%. This compound also came in with an EC50 in assay [3] above 37 µM.
Regarding `O=C1c2ccccc2C(=O)c2cc(CO)ccc21` [Compound 35, 2-(hydroxymethyl)-anthraquinone], the inhibition in vivo at 0.1 mg was determined as 75% in assay [1] (read-out: Average Perdosage % Inhibition, dose 2 × 100 (micrograms) i.p., Table III) and 64% in assay [1] (read-out: Average Perdosage % Inhibition, dose 100 (micrograms) i.p., Table III). Moreover, the inhibition in vivo at 0.05 mg in assay [1] (read-out: Average Perdosage % Inhibition, dose 50 (micrograms) i.p., Table III) came out at 62%. Also, the inhibition in vivo at 0.2 mg in assay [1] (read-out: Average Perdosage % Inhibition, dose 200 (micrograms) i.p., Table III) is 77%. In addition, the “Average Spleen Weight” value was 0.6575 in assay [1] (setting [12]), 0.8921 in assay [1] (setting [13]), 0.8615 in assay [1] (setting [14]) and 0.6086 in assay [1] (setting [15]). In addition, the “Pooled Average % Inhibition” value in assay [1] (Table III) came to 70%. Further, the EC50 was above 41 µM in assay [3] and 145 µM in assay [4].
